We go through four compounds from patent publication US20250114377A1, “TWO-PRONGED TREATMENT FOR NIEMANN PICK TYPE C DISEASE” (UNIVERSITY OF NOTRE DAME DU LAC, priority 2022, published 2025).

Each structure is given as a SMILES string.

One assay relates to lysosomal tubulation. The assay can be described thus: Rescue of lysosomal tubulation with purified oxysterols in LDL-depleted media (FIG. 4). As to conditions: media depleted of LDL supplemented with the oxysterol; 24-HC p<0.005, 25-HC p<0.0001. The assay is classed as cell-based. The protocol:
FIG. 4. Rescue of Lysosomal Tubulation with Purified Oxysterols. Measurements of lysosomal tubulation comparing control complete media (Control) to media depleted of LDL (LDL−) and depleted media supplemented with 27-hydroxycholesterol (27-HC), 24-hydroxycholesterol (24-HC) or 25-hydroxycholesterol (25-HC).
Fixed and live-cell imaging was performed on COS-7 cells grown in Dulbecco's Modified Eagle's Medium (DMEM) supplemented with 10% fetal bovine serum, 1% L-glutamine, and penicillin/streptomycin (Sigma-Aldrich). Transfections were performed using either Lipofectamine (Life Technologies), X-treme Gene DNA Transfection reagent (Roche, Indianapolis, IN) or Nanofect (Allstem, Richmond, CA). J774A.1 mouse macrophages were provided and cultured in the same media. Cells were tested for contamination using PCR-based test kits (Sartorius, Inc.; Cat #SMB95-1001).
Microscopy experiments were performed on a Zeiss Axiovert 200M (Thornwood, NY) run by Metamorph software (Sunnyvale, CA). Fixed and live cell imaging data was collected using either a Photometrics Coolsnap HQ or Cascade 1k CCD camera (Tucson, AZ). Timelapse imaging of cells expressing NPC1-EGFP and mCherry-StARD9 utilized a Dual-view camera (Photometrics) adapter to allow simultaneous acquisition of green and red channels at each timepoint. Kymographs were generated in Metamorph using a 1p m slice from each frame.
To test this idea, we treated either NPC1 mutant (null or I1061T) or StARD9 mutant (null or truncation mutant) cells with 27-HC in a cocktail that delivers it into the cytoplasm independent of receptor-mediated endocytosis. […] Next, we treated NPC1(−/−) mice with 27-HC by i.p. delivery.

Assay [1] deals with LE/L membrane tubule projection, COS-7 cells. Put plainly: LE/L tubule projection of NPC1-containing membranes with microtubule drugs. The assay is classed as cell-based. As to conditions: FP-tagged NPC1 membranes, live-cell imaging. From the text:
Although it is well-accepted that mutations in NPC1 are responsible for ˜95% of human cases of NPC disease, there is less consensus on the specific cellular activities NPC1 is responsible for. For example, both the N-terminal domain and the sterol-sensing domain of NPC1 are thought to bind cholesterol and mediate the movement of lumenal cholesterol across the limiting membrane of LE/Ls. However, the lipids that over-accumulate in NPC disease are not limited to cholesterol and include oxysterols, sphingolipids, gangliosides and GPI-anchored proteins. Furthermore, the pathological accumulations of cholesterol have been proposed to affect the functional state of LE/Ls directly, including perturbing calcium uptake, autophagy/mitophagy and the thickness of the glycocalyx. However, the specific ways in which NPC1 mutations affect these parameters remain unclear. With this wide range of unknowns in mind, we generated a FP-tagged NPC1 plasmid construct for expression in mammalian cells. […] Also overlapping with previous observations, LE/L membranes incorporating FP-tagged NPC1 projected a population of long, slender, dynamic membrane tubules that emerged from the surface of stationary LE/Ls and extended towards the cell periphery (See Sterling, FIG. 1A and Sup Vid. 1). […]

With `CC(C)C(O)CC[C@@H](C)[C@H]1CC[C@H]2[C@@H]3CC=C4C[C@@H](O)CC[C@]4(C)[C@H]3CC[C@]12C` (stereo partly shown) [24-HC, 24-hydroxycholesterol], the “Rescue of lysosomal tubulation compared with 27-HC” value with lysosomal tubulation is on record as “significantly lower that 27-HC”. On the same count and under the same terms, the entry for `C[C@H](CCCC(C)(C)O)[C@H]1CC[C@H]2[C@@H]3CC=C4C[C@@H](O)CC[C@]4(C)[C@H]3CC[C@]12C` [25-HC, 25-hydroxycholesterol] is “significantly lower that 27-HC”.

Take `COC(=O)Nc1nc2ccc(C(=O)c3cccs3)cc2[nH]1` [nocodazole]: the “Effect on LE/L tubule projection” value in assay [1] is “inhibited”. Still for that read-out and setting: to `CC(=O)O[C@H]1C(=O)[C@@]2(C)[C@H]([C@H](OC(=O)c3ccccc3)[C@]3(O)C[C@H](OC(=O)[C@H](O)[C@@H](NC(=O)c4ccccc4)c4ccccc4)C(C)=C1C3(C)C)[C@]1(OC(C)=O)CO[C@@H]1C[C@@H]2O` [taxol] belongs “inhibited”.
